In one experiment the target is T1, Pirin (Homo sapiens, UniProt O00625).
T1 sequence (O00625 whole entry): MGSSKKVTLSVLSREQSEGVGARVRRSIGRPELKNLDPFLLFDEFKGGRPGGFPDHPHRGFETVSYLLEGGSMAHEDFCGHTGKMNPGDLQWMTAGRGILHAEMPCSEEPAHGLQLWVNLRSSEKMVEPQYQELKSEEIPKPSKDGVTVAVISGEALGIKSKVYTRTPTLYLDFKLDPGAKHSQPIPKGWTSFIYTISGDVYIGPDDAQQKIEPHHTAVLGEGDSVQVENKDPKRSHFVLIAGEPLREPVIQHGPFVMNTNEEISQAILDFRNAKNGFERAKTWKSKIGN
Put plainly: Displacement of 6-amino-9-(2-((4-((2-((6-((5-(2,3-dihydrobenzo[b][1,4]dioxine-6-carboxamido)-2-methylphenyl)carbamoyl)quinolin-2-yl)oxy)ethyl)amino)-4-oxobutyl)(methyl)carbamoyl)phenyl)-3-imino-3H-xanthene-4,5-disulfonic acid from pirin (unknown origin) by fluorescence polarization assay.

Experiment [1] deals with Serine/threonine-protein kinase B-raf (Homo sapiens, UniProt P15056). Put plainly: Inhibition of recombinant human full length GST-tagged BRAF expressed in baculovirus expression system.
The target in experiment [2] is Serine/threonine-protein kinase B-raf (Homo sapiens, UniProt P15056, V600E). Put plainly: Inhibition of recombinant human GST-tagged BRAF V600E mutant expressed in baculovirus expression system.
The target in experiment [3] is Homeodomain-interacting protein kinase 2 (Homo sapiens, UniProt Q9H2X6). Put plainly: Inhibition recombinant human HIPK2 (165 to 564 residues) after 5 mins in presence of [33P] ATP by Topcount method.
The target in experiment [4] is T2, Serine/threonine-protein kinase TAO1 (Homo sapiens, UniProt Q7L7X3).
T2 sequence (Q7L7X3 whole entry): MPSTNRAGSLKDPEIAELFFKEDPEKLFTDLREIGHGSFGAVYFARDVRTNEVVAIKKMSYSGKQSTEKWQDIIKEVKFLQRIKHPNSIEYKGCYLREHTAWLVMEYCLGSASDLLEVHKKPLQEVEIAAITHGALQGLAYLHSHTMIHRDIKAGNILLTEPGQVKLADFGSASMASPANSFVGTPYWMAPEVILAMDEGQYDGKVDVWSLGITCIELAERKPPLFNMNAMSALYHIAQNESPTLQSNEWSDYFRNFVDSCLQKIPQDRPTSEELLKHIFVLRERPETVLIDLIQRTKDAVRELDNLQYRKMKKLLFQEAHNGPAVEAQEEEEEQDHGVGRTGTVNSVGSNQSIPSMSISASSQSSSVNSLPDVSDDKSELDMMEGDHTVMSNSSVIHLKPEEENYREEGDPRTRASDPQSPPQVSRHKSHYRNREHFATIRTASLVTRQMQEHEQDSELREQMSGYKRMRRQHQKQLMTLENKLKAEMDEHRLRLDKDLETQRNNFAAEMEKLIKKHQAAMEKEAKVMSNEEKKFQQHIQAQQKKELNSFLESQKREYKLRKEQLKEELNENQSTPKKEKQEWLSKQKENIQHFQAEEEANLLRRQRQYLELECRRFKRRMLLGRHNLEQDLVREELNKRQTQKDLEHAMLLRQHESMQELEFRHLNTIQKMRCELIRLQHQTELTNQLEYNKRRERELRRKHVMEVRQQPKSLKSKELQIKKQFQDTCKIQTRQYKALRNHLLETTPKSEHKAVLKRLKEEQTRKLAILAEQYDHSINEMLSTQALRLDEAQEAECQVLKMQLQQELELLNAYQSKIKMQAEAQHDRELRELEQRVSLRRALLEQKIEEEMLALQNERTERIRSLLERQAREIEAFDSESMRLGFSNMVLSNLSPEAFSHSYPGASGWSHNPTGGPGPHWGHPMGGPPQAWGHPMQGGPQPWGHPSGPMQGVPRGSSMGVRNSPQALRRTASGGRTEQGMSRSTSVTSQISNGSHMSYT
Kind of experiment: Inhibition recombinant human TAOK1 (1 to 356 residues) after 5 mins in presence of [33P] ATP by Topcount method.

Structures are written as SMILES. pIC50: −log10 of the molar value. Where only a bound is given, the exact number is not on record here.

Serine/threonine-protein kinase B-raf (Homo sapiens, UniProt P15056), sequence (P15056 whole entry): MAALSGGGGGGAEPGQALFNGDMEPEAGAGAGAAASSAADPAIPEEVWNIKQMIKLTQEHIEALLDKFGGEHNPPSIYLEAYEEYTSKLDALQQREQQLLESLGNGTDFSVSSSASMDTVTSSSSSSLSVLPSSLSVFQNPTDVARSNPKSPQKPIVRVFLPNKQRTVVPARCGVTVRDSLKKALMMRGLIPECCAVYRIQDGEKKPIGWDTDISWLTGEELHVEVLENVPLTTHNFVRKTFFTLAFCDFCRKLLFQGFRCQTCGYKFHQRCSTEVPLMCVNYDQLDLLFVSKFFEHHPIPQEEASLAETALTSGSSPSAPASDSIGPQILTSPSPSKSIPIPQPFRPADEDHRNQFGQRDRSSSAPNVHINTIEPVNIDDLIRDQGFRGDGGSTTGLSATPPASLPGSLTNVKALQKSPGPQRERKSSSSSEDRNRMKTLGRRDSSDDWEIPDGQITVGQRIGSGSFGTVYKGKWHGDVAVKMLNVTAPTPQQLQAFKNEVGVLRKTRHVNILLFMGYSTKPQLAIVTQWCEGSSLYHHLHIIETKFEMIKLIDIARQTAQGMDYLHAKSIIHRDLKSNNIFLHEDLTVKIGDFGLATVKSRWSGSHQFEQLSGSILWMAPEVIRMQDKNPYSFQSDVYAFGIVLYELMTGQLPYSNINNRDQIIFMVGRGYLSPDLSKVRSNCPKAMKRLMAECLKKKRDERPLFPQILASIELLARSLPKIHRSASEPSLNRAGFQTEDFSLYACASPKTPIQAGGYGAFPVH
Homeodomain-interacting protein kinase 2, sequence (Q9H2X6 whole entry, the tested form may be a part): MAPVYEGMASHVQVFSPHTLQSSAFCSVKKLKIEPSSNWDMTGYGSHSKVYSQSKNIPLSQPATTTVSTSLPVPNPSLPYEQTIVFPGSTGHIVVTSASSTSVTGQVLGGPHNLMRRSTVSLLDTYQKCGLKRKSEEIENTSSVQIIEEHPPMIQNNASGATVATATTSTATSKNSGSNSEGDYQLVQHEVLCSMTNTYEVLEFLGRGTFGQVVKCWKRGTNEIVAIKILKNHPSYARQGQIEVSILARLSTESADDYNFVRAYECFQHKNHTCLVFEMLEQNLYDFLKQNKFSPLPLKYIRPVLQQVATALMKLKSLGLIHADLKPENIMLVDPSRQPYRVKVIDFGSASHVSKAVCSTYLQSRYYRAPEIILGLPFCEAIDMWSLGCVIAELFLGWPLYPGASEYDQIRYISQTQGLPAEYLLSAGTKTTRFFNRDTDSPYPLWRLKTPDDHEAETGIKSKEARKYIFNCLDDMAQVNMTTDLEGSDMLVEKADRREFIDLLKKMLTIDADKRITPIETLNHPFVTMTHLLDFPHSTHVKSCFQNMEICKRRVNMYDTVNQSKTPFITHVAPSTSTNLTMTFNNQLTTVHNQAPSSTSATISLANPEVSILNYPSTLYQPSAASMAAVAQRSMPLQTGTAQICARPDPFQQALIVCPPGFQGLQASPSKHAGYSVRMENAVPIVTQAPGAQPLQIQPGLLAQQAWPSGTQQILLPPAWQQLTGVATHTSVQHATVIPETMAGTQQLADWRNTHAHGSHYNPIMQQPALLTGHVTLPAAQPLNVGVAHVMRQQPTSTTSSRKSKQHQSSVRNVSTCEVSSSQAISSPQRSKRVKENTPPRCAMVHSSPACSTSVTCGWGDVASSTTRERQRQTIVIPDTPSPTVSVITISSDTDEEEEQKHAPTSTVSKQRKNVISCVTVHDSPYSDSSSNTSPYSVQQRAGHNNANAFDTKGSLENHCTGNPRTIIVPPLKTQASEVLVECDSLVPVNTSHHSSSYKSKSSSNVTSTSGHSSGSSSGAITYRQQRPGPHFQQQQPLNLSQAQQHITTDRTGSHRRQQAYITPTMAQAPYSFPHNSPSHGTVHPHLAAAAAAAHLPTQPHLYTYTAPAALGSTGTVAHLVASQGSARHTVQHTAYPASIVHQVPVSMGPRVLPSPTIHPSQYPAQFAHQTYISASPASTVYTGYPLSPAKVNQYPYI
Serine/threonine-protein kinase B-raf (Homo sapiens, UniProt P15056, V600E), sequence (P15056 2-766 V600E limits assumed): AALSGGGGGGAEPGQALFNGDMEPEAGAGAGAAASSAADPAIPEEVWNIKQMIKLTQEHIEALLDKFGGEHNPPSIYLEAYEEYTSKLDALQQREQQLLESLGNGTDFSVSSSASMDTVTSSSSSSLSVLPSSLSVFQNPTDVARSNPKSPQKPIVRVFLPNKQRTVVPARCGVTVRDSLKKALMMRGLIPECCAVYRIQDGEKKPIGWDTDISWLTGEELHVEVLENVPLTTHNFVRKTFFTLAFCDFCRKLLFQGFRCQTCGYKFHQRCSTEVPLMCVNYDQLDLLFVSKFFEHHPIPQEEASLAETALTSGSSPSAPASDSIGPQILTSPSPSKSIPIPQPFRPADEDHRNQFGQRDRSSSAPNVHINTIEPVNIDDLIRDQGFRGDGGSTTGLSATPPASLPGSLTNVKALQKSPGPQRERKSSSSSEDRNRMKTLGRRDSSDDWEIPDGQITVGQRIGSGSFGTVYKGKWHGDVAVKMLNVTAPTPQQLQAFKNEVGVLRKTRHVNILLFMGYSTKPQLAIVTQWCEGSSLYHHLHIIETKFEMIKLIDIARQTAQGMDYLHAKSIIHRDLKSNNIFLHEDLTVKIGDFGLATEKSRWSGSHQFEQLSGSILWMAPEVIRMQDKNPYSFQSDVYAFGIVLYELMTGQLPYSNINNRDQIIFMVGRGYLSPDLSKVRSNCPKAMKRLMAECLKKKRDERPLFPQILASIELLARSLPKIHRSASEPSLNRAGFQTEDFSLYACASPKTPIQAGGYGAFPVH

Usually pIC50 stands for −log10 of the IC50, conventionally taken in molar units. With `Cc1ccc(NC(=O)c2cccc(C(C)(C)C#N)c2)cc1Nc1ccc2ncn(C)c(=O)c2c1`, at Pirin, the pIC50 is less than 5.00. As to `N#Cc1c(Oc2ccc(F)c(NC(=O)Cc3cccc(C(F)(F)F)c3)c2)ccc2nc(NC(=O)C3CC3)sc12`, the pIC50 is 8.10 in experiment [1], less than 5.00 on Pirin and 8.70 in experiment [2]. For the compound `c1cnc2ncn(-c3cc(Nc4ccc(OCCN5CCCCC5)cn4)ncn3)c2c1`, the figures for the pIC50 in experiment [3] and in experiment [4] were 7.52 and 6.31, respectively.

As for `Cn1c(Nc2ccc(C(F)(F)F)cc2)nc2cc(Oc3ccnc(-c4ncc(C(F)(F)F)[nH]4)c3)ccc21` [RAF-265], the pIC50 at Pirin was less than 5.00. For `OCCn1cc(-c2ccc3c(c2)CC/C3=N\O)c(-c2ccncc2)n1`, the pIC50 at Pirin is less than 5.00. Same read-out and setting: for `CC(C)(C)c1nc(-c2cccc(NS(=O)(=O)c3c(F)cccc3F)c2F)c(-c2ccnc(N)n2)s1` [DABRAFENIB] the value was less than 5.00. Same read-out and setting: with `CCCS(=O)(=O)Nc1ccc(F)c(C(=O)c2c[nH]c3ncc(Cl)cc23)c1F` [PLX-4720] the figure was 6.17. Consider `CC(C)(C)N1CCN(Cc2ccc3cc(C(=O)Nc4cc(NC(=O)c5ccc6c(c5)OCCO6)ccc4Cl)ccc3n2)CC1`, for which the negative-log IC50 (pIC50) in experiment [1] is less than 5.00; at Pirin it was 7.48.
